Tested on: South African variant of SARS-CoV-2 (SARS-CoV-2 SA)
Format: cell-based
Conditions: 10 μM RFN, no ascorbate; 425 nm light 7.5 J/cm^2; FIG. 3B

Structure (SMILES): Cc1cc2nc3c(=O)[nH]c(=O)nc-3n(C[C@H](O)[C@H](O)[C@H](O)CO)c2cc1C [riboflavin]
- fold reduction in viral loads of SARS-CoV-2 SA: 642 fold
- reduction in viral loads of SARS-CoV-2 SA: ~99.8%
- reductions in viral loads of SARS-CoV-2 SA: significant reductions

Source: patent publication US11980774B2, “Illumination devices and related methods for phototherapeutic light treatments in the presence of vitamins” (priority 2021, dated 2024)
